According to US7125844B2, “Dab9 derivatives of lipopeptide antibiotics and methods of making and using the same” (priority 2002, dated 2006):

Test system: methicillin sensitive Staphylococcus aureus (MSSA; Smith strain)
Experiment: Mouse protection model: mice infected intraperitoneally with MSSA, dosed subcutaneously
Type: in vivo
Details: for Number Dead: 10 mice
Procedure: An overnight culture of methicillin sensitive Staphylococcus aureus (“MSSA”; Smith strain) grown to stationary phase in brain heart infusion broth (BHI) was diluted 1000-fold and maintained at 37° C. in a shaking incubator. Approximately two hours later the culture was centrifuged and the pellet was washed with sterile phosphate-buffered saline (“PBS”). The washed pellet was then reconstituted in Mueller-Hinton Broth (“MHB”) to achieve the desired density of bacteria. A portion of the inoculum was plated on blood agar plates to determine colony-forming units (CFU) per milliliter.
Compound IB-1272 was formulated immediately before dosing in aqueous vehicle containing 5% dextrose. Compound IB-756 (Aspartocin) was formulated in PBS or 5% dextrose and used as a positive control.
Immunocompetent Swiss Webster Mice from Simonsen Laboratories, Gilroy, Calif., received via intraperitoneal injection a single inoculum (0.5 ml) containing an estimated 4.0×10^7 CFU of MSSA Smith strain. The day of inoculation was designated study day 0. Immediately after infection, mice were treated subcutaneously with a single dose of vehicle alone, IB-1272 (2, 4, or 8 mg/kg), IB-756 (2.5 or 5 mg/kg in PBS), or IB-756 (2.5 or 5 mg/kg in 5% dextrose).

[1] = 2.0 mg/kg s.c. single dose (5% dextrose vehicle)
[2] = 4 mg/kg s.c. single dose (5% dextrose vehicle)
[3] = 8 mg/kg s.c. single dose (5% dextrose vehicle)
[4] = Table 1, no unit or model given

CC(C)CCCCCCCC/C=C\CC(=O)N[C@@H](CC(=O)O)C(=O)N[C@@H]1C(=O)N2CCCC[C@@H]2C(=O)N[C@@H]([C@H](C)C(=O)O)C(=O)N[C@@H](CC(=O)O)C(=O)NCC(=O)N[C@@H](CC(=O)O)C(=O)NCC(=O)N[C@H]([C@@H](C)NC(=O)CN)C(=O)N[C@@H](C(C)C)C(=O)N2CCC[C@H]2C(=O)N[C@@H]1C [IB-1272, NatC15-aspartocin(Dab^9-N-glycyl)]
Percent Mortality [1]: 50% | Percent Survival [1]: 50% | Number Dead [1]: 5 | Percent Mortality [2]: 0% | Percent Survival [2]: 100% | Number Dead [2]: 0 | Percent Mortality [3]: 0% | Percent Survival [3]: 100% | Number Dead [3]: 0 | ED50 [4]: 1.8 mg/kg | ED50 (subcutaneously administered, immunocompetent mice challenged intraperitoneally with MSSA Smith strain): < 2.0 mg/kg

CC(C)CCCCCCCC/C=C\CC(=O)N[C@@H](CC(=O)O)C(=O)N[C@@H]1C(=O)N2CCCC[C@@H]2C(=O)N[C@@H]([C@H](C)C(=O)O)C(=O)N[C@@H](CC(=O)O)C(=O)NCC(=O)N[C@@H](CC(=O)O)C(=O)NCC(=O)N[C@H]([C@@H](C)NC(=O)[C@H](C)N)C(=O)N[C@@H](C(C)C)C(=O)N2CCC[C@H]2C(=O)N[C@@H]1C [IB-1275, NatC15-aspartocin(Dab^9-N-L-alanyl)]
ED50 [4]: 15.7 mg/kg

CC(C)CCCCCCCC/C=C\CC(=O)N[C@@H](CC(=O)O)C(=O)N[C@@H]1C(=O)N2CCCC[C@@H]2C(=O)N[C@@H]([C@H](C)C(=O)O)C(=O)N[C@@H](CC(=O)O)C(=O)NCC(=O)N[C@@H](CC(=O)O)C(=O)NCC(=O)N[C@H]([C@@H](C)NC(=O)[C@@H](C)N)C(=O)N[C@@H](C(C)C)C(=O)N2CCC[C@H]2C(=O)N[C@@H]1C [IB-1279, NatC15-aspartocin(Dab^9-N-D-alanyl)]
ED50 [4]: 6 mg/kg

CC(C)CCCCCCCC/C=C\CC(=O)N[C@@H](CC(=O)O)C(=O)N[C@@H]1C(=O)N2CCCC[C@@H]2C(=O)N[C@@H]([C@H](C)C(=O)O)C(=O)N[C@@H](CC(=O)O)C(=O)NCC(=O)N[C@@H](CC(=O)O)C(=O)NCC(=O)N[C@H]([C@@H](C)NC(=O)[C@@H](N)CO)C(=O)N[C@@H](C(C)C)C(=O)N2CCC[C@H]2C(=O)N[C@@H]1C [IB-1281, NatC15-aspartocin(Dab^9-N-L-seryl)]
ED50 [4]: 14.7 mg/kg
